# According to ChEMBL document CHEMBL1201862, “PubChem BioAssay data set” (2004):
# Activity calls are given as the source filed them.
# Legend:
# [1] = target: Beta-galactosidase (Escherichia coli, UniProt Q8VNN2); experiment: Dose response counterscreen for EBI2 assay utilizing the enzyme, b-galactosidase.; assay type: functional
# [2] = Luminescence Cell-Based Dose Confirmation HTS to Identify Inhibitors of Platelet Dense Granule Release. [Related pubchem assays: 1663 (Primary HTS), 1678 (Summary of Project)]; assay type: functional
# [3] = target: Luciferin 4-monooxygenase (Photinus pyralis, UniProt P08659); experiment: inhibition of purified Photinus pyralis luciferase – biochemical, luminescence, dose response (AID 1891)
# [4] = target: Glyceraldehyde-3-phosphate dehydrogenase (Homo sapiens, UniProt P04406)
# [5] = target: T1, Bcl-2-related protein A1 (Mus musculus, UniProt Q07440); experiment: small-molecule antagonists of Bfl-1/BH3 interaction – biochemical, TR-FRET, mouse Bfl-1, confirmation (AID 621);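 also: TR-FRET binding of GST-Bfl-1 to FITC-labelled Bid peptide via terbium antibody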
# T1 sequence (Q07440 whole entry): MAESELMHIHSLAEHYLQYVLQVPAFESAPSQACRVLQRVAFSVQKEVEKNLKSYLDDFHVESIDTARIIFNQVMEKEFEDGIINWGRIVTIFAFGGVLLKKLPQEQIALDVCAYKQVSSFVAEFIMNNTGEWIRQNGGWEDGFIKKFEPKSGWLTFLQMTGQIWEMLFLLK
# [6] = target: T1, Bcl-2-related protein A1; experiment: Bfl-1 binding inhibitors, SAR follow-up, biochemical, fluorescence polarization (AID 1070)
# [7] = target: Cytochrome P450 3A4 (Homo sapiens, UniProt P08684);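 also: CYP3A4 tested as one member of a cytochrome P450 panel screen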
# [8] = target: T2, Cytochrome P450 1A2 (Homo sapiens, UniProt P05177);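 also: PubChem cytochrome P450 panel assay, CYP1A2 panel member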
# T2 sequence (P05177 whole entry): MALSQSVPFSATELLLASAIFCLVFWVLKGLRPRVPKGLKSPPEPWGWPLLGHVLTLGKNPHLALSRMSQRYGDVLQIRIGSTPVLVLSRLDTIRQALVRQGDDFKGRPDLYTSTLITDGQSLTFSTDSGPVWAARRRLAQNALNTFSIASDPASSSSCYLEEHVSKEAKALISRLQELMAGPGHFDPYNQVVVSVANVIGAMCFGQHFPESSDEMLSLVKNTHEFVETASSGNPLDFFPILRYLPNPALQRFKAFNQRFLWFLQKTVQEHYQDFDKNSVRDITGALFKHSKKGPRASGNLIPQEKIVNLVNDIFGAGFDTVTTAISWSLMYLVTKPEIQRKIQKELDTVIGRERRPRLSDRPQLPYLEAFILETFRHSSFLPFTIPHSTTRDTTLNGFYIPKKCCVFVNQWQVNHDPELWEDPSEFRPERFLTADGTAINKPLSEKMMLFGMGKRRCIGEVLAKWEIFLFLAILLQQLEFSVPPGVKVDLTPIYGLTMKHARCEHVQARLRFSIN
# [9] = viability loss in Vero cells – cytotoxicity control for Vif-APOBEC3G degradation inhibitor project, dose response (AID 1117358); assay type: functional; details: Vero
# [10] = target: Prothrombin (Homo sapiens, UniProt P00734); experiment: Thrombin 1536 HTS Dose Response Confirmation. [Related pubchem assays: 1046 (Thrombin 1536 HTS; hits were confirmed in this assay)]; assay type: functional
# [11] = target: T3, Mannose-6-phosphate isomerase (Homo sapiens, UniProt P34949); experiment: MPI inhibition at elevated mannose 6-phosphate – biochemical, fluorescence intensity, high mannose 6-phosphate, primary screen (AID 1220)
# T3 sequence (P34949 whole entry): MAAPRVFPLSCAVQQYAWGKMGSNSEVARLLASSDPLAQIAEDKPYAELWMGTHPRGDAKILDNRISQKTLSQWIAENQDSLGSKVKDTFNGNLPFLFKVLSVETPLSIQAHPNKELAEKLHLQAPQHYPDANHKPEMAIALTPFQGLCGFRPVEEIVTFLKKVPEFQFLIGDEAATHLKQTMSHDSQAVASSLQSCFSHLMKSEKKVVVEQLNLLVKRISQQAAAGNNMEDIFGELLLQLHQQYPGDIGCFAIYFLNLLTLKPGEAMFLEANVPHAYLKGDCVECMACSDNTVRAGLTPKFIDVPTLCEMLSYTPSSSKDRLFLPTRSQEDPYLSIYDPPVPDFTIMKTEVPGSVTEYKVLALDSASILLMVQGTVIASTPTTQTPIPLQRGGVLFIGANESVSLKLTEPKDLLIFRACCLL
# [12] = test system: BJ; experiment: BJ-TERT fibroblast viability loss – cell-based, RAS-independent, luminescence, dose response (AID 1933); assay type: functional; details: Homo sapiens
# [13] = test system: BJ; experiment: cells; assay type: functional, cell-based; details: Homo sapiens
# [14] = test system: INS1; experiment: INS-1E survival protection against cytokine death – cell-based, luminescence, retest, dose response (AID 449756); assay type: functional; details: Rattus norvegicus;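 also: cell death triggered by IL-1 beta plus TNF-alpha plus IFN-gamma mixture; protective hits raise ATP signal compared with cytokine alone wells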
# [15] = target: Cytochrome P450 2C9 (Homo sapiens, UniProt P11712)
# [16] = test system: BJ; experiment: growth inhibition of engineered Ras-driven BJ cells – cell-based, alamar blue fluorescence, cherrypicked samples, dose response (AID 2631); assay type: functional; details: Homo sapiens;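 also: confirmatory dose-response assay in RAS-dependent BJ fibroblasts engineered with TERT, LT and ST, with cytotoxicity read by fluorescence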
# [17] = target: Paired box protein Pax-8 (Homo sapiens, UniProt Q06710); experiment: PAX8 transcriptional activity inhibition in RMG-I – RMG-I cells, luciferase, cherry-pick, dose response (AID 687027); assay type: functional, cell-based;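 also: luciferase reporter driven by Pax8 target thyroperoxidase promoter measured by SteadyGlo luminescence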
# [18] = DRD fibroblast viability loss – cell-based, non-viral oncogenic, luminescence, dose response (AID 1934); assay type: functional; details: Homo sapiens
# [19] = test system: BJ; experiment: BJ-TERT-LT-ST fibroblast viability loss – cell-based, RAS-independent, luminescence, dose response (AID 1935); assay type: functional; details: Homo sapiens;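 also: BJ fibroblasts immortalized with TERT plus LT and ST oncogenes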
# [20] = viability loss of HPDE-C7K cells – cell-based, fluorescence, HTS, primary screen (AID 431); assay type: functional; details: Homo sapiens
# [21] = HPDE-C7 pancreatic duct cell viability loss – fluorescence, HTS (AID 430); assay type: functional, cell-based; details: Homo sapiens
# [22] = cells; assay type: functional
# [23] = target: T4, Heat shock factor protein 1 (Mus musculus, UniProt P38532); experiment: decrease of HSF1-responsive luciferase luminescence – cell-based, NIH3T3, dose retest, confirmation (AID 2382); assay type: functional;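 also: NIH3T3 fibroblasts with HSF1-driven luciferase reporter stressed by proteasome inhibitor MG132; luminescence from HSF1-driven luciferase expression after 8 hours of MG132 stress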
# T4 sequence (P38532 whole entry): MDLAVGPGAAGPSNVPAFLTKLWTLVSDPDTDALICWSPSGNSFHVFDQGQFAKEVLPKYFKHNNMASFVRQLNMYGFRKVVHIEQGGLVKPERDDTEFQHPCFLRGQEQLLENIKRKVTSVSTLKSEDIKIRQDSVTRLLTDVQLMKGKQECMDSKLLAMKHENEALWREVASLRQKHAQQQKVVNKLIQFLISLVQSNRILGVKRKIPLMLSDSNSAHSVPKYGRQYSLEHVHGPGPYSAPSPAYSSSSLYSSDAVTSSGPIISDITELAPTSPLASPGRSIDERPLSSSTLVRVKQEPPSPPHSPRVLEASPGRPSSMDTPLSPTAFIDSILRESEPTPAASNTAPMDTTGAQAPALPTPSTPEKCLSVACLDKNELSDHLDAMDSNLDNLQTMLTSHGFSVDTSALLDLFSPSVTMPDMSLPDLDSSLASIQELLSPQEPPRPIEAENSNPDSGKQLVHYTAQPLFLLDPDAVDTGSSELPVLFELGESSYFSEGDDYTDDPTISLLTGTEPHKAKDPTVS
# [24] = blockade of melanocortin 4 receptor signaling – cell-based, plate reader, cherry pick, counter-screen for LGR2 antagonist project, dose response (AID 743444); assay type: functional;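 also: transfected HEK 293 cells stimulated with alpha-MSH peptide; potency of inhibitors of the alpha-MSH evoked signal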
# [25] = blockers of bursicon-stimulated LGR2 cAMP reporter – cell-based, HEK293, CRE-luciferase reporter, cherry pick, set 2, dose response (AID 743343); assay type: functional;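 also: transfected cells were stimulated with diluted bursicon conditioned medium after compound addition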
# [26] = test system: HEK293; experiment: EBV LMP1 TES2 canonical NF-kB signalling blockers – cell-based, HEK293, luciferase, cherry-pick, dose response (AID 588343); assay type: functional; details: Homo sapiens
# [27] = A Cell Based Secondary Assay To Explore Cytotoxicity of Compounds that Sensitize Mycobacterium Tuberculosis to Beta-Lactam Antibiotics.; assay type: functional
# Sequence of Glyceraldehyde-3-phosphate dehydrogenase (P04406 whole entry): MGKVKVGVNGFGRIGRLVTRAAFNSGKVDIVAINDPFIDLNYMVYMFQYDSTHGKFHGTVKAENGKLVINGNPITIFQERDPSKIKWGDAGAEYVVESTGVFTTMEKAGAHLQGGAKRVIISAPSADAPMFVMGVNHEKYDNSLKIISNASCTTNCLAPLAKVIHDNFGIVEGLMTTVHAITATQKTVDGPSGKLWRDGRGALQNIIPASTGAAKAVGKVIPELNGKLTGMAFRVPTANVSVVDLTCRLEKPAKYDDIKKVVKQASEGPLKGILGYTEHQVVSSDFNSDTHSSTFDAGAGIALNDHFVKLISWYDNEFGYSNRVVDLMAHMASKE
# Sequence of Cytochrome P450 3A4 (P08684 whole entry): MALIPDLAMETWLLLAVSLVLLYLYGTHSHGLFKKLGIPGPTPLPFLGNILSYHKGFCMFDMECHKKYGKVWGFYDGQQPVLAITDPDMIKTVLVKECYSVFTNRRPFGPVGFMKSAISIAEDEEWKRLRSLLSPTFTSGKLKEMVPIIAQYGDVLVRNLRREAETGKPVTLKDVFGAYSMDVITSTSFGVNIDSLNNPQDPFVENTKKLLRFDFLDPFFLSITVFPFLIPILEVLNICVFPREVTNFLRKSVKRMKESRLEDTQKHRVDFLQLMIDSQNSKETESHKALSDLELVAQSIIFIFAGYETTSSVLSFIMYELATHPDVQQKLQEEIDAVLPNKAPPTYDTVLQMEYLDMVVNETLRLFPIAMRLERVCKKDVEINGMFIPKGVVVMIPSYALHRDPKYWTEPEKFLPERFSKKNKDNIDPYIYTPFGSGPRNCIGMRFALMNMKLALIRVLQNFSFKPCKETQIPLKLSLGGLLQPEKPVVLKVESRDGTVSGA
# Sequence of Beta-galactosidase (Q8VNN2 whole entry): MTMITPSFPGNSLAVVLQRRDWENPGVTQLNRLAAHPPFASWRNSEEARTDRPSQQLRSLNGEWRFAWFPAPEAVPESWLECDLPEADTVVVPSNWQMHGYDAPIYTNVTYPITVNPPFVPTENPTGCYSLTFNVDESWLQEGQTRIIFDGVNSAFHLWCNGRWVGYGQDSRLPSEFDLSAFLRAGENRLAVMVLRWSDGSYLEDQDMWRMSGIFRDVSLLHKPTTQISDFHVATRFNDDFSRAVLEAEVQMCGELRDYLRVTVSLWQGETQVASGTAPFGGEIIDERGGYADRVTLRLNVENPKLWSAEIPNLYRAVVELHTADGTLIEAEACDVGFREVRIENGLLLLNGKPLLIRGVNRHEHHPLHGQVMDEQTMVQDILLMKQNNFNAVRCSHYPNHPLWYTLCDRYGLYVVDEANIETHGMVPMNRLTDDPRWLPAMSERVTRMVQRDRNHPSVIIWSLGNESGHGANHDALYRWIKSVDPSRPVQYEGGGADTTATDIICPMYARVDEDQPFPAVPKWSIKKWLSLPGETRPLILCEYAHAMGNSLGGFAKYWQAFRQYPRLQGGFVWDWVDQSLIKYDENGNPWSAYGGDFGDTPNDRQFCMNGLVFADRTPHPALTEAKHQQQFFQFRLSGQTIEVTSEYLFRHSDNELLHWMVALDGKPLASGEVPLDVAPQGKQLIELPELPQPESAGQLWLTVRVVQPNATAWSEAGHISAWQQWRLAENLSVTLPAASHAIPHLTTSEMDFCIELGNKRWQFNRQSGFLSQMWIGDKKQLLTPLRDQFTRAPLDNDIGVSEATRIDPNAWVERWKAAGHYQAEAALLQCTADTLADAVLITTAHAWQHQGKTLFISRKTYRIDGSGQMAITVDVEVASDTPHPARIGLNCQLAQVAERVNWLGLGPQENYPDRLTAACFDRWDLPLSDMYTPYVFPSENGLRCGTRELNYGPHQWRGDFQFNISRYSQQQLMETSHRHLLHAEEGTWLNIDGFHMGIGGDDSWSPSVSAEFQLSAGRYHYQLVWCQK
# Sequence of Luciferin 4-monooxygenase (P08659 whole entry): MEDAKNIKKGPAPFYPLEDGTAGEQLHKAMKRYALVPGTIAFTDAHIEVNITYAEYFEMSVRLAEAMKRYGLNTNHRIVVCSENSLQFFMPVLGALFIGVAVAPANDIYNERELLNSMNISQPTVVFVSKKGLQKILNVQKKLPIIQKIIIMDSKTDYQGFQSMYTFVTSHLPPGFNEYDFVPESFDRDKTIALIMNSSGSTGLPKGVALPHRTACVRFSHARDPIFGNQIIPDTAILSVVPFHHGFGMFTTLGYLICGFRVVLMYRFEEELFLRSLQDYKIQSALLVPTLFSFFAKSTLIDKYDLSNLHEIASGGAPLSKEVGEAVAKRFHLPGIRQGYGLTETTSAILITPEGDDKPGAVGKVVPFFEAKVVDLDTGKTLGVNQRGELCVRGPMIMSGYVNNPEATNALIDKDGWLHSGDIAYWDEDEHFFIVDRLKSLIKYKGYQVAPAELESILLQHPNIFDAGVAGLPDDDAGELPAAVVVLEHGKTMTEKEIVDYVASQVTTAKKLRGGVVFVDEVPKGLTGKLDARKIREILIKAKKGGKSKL
# Sequence of Cytochrome P450 2C9 (P11712 whole entry): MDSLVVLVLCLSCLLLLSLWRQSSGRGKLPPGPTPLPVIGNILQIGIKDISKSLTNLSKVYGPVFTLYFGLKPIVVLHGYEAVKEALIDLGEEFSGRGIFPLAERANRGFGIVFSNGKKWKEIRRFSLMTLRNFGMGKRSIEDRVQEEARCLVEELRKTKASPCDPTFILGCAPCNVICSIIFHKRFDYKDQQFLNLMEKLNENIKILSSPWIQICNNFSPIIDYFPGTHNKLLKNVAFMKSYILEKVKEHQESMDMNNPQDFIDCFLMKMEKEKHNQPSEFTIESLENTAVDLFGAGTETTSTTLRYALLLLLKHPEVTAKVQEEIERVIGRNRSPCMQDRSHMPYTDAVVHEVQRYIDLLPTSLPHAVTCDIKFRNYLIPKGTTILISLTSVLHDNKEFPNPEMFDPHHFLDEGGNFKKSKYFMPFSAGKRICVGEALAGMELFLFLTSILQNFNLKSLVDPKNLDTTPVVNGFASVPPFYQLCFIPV
# Sequence of Paired box protein Pax-8 (Q06710 whole entry): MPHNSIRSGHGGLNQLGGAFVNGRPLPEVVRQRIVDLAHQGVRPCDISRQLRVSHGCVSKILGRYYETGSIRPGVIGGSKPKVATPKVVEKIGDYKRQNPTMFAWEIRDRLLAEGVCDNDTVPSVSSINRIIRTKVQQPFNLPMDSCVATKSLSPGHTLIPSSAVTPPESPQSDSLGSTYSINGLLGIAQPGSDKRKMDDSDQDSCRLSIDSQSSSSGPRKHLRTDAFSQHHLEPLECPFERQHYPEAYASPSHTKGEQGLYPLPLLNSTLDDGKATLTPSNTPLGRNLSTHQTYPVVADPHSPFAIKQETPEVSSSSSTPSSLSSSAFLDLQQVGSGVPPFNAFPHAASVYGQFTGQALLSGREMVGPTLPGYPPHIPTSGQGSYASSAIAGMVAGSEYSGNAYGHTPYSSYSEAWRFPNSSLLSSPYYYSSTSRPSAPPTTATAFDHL
structure (smiles),measurement,setting,value
COc1cccc(CN2CCN(C(=O)COc3ccc4ccccc4c3)CC2)c1,IC50,[1],> 80 µM (inactive)
same,EC50,[2],> 112 µM (not active)
same,EC50,[3],> 112 µM (not active)
O=C1C(Cl)=C(Cl)C(=O)N1c1ccccc1Cl,IC50,[4],> 100 µM (not active)
same,IC50,[5],3.64 µM (active)
same,IC50,[6],10.2 µM (active)
O=C1C(Cl)=C(N2CCN(c3ccc(Cl)c(Cl)c3)CC2)C(=O)N1c1ccc(Cl)c(Cl)c1,IC50,[4],> 100 µM (not active)
same,IC50,[5],65.5 µM (active)
same,IC50,[6],> 100 µM (not active)
CSC1=C(C#N)C(c2ccccc2Cl)C2=C(O)c3ccccc3C2=N1 (centres undefined),AC50,[7],inconclusive
O=C(/C=C/c1ccccc1)N1CCN(Cc2nc(O)c3ccccc3n2)CC1,AC50,[8],31.6 µM (inconclusive)
same,IC50,[1],> 80 µM (inactive)
CCCCc1c(C)nc2ccc(Br)cc2c1SCCC#N,CC50,[9],16.3 µM (active)
same,IC50,[10],> 50 µM (not active)
Oc1c(CN2CCOCC2)ccc2ccccc12,IC50,[11],> 50 µM (not active)
FC(F)(F)c1nnc2c(Sc3ccccc3)nc3ccc(Cl)cc3n12,AC50,[7],inconclusive
same,EC50,[12],1.8 µM (inconclusive)
same,EC50,[13],23.4 µM (active)
same,AC50,[14],7.41 µM (active)
same,AC50,[15],8.91 µM (inconclusive)
same,EC50,[16],0.599 µM (active)
same,AC50,[17],1.52 µM (active)
same,EC50,[18],4.19 µM (active)
same,EC50,[19],3.65 µM (active)
CC(C)(C)c1cc(CN2CCCC(O)C2)c(O)c(C(C)(C)C)c1 (centres undefined),EC50,[20],14.9 µM (active)
same,EC50,[21],15.5 µM (active)
Cc1cccc(NCCC(=O)c2ccc([N+](=O)[O-])cc2)c1C,IC50,[22],18 µM (active)
same,IC50,[11],> 50 µM (not active)
Cc1cc(NC(=O)CCNS(=O)(=O)c2cc(Br)cnc2N)ccc1Br,CC50,[9],> 40 µM (active)
O=C(O)c1cccc(Nc2ccnc(Nc3cccc(C(=O)O)c3)n2)c1,EC50,[23],0.281 µM (active)
same,AC50,[24],2.56 µM (active)
same,AC50,[25],2.9 µM (active)
same,AC50,[26],3.56 µM (active)
COc1ccc(-n2cc(-c3ccccc3)c3c(NN4CCOCC4)ncnc32)cc1,CC50,[27],> 40 µM (active)
